Source: patent publication US9738655B2, “Tetrahydroisoquinolines containing substituted azoles as factor XIa inhibitors” (BRISTOL-MYERS SQUIBB COMPANY, priority 2013, dated 2017)
Counter-ions that a name gives are not always drawn.

Legend:
[1] = biological target: purified human Factor XIa (Homo sapiens (Human), UniProt P03951); experiment: Factor XIa enzyme inhibition assay (chromogenic substrate S-2366); conditions: read-out: Factor XIa Ki; measured at 25° C.
[2] = biological target: purified human plasma kallikrein (Homo sapiens (Human), UniProt P03952); experiment: Plasma kallikrein enzyme inhibition assay (chromogenic substrate S-2302); assay type: biochemical
[3] = measured at 25° C. (no asterisk)

Sequence of purified human Factor XIa (P03951 388-625): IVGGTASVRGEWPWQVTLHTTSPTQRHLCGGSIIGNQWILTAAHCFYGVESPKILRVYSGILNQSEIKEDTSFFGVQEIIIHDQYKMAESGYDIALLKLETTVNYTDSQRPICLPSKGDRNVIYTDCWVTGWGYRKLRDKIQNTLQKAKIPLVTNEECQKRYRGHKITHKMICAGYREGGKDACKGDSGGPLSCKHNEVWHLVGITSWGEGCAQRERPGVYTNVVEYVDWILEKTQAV
Sequence of purified human Factor XIa (P03951 19-387 partner): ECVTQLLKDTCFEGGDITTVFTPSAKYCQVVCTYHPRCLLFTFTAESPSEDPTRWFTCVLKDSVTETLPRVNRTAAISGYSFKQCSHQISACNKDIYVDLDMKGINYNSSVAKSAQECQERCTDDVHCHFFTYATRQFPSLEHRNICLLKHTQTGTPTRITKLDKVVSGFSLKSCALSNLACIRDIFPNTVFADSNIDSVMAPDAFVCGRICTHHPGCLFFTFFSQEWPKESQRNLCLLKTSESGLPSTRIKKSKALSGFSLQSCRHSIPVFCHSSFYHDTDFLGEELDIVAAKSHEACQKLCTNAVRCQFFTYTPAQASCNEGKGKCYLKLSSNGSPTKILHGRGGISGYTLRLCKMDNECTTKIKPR
Sequence of purified human plasma kallikrein (P03952 391-638): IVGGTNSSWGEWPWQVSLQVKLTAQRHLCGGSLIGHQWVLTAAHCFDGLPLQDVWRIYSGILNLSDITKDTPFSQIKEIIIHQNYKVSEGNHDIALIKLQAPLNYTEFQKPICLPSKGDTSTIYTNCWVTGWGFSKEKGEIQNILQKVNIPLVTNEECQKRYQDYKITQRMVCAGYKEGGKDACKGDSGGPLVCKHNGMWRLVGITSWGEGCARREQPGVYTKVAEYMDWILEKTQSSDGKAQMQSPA
Sequence of purified human plasma kallikrein (P03952 20-390 partner): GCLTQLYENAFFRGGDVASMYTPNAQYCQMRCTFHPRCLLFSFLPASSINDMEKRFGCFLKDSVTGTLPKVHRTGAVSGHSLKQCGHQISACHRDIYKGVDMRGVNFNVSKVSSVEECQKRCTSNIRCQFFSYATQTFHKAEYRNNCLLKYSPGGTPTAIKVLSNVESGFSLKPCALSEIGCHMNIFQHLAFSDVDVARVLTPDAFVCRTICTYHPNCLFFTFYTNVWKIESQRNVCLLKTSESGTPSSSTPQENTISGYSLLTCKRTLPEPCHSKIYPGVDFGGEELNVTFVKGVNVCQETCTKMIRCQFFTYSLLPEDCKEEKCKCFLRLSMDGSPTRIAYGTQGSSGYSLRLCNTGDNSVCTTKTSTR

Ki [1] | Ki [2, 3] | Ki ([2]; measured at 37° C. (*)) | Compound
38 nM | – | 250 nM | COC1CCN(c2cccc3c2CCN(C(=O)c2cn(-c4cccc(Cl)c4F)nn2)C3C(=O)Nc2ccccc2)CC1 (stereo not shown) [Example 118, 2-(1-(3-Chloro-2-fluorophenyl)-1H-1,2,3-triazole-4-carbonyl)-5-(4-methoxypiperidin-1-yl)-N-phenyl-1,2,3,4-tetrahydroisoquinoline-1-carboxamide, TFA salt]
1050 nM | – | 7900 nM | COC1CCN(c2cccc3c2CCN(C(=O)c2cn(-c4cccc(Cl)c4F)nn2)[C@H]3C(=O)Nc2ccc(CO)cc2)CC1 [Example 121, (R)-2-(1-(3-Chloro-2-fluorophenyl)-1H-1,2,3-triazole-4-carbonyl)-N-(4-(hydroxymethyl)phenyl)-5-(4-methoxypiperidin-1-yl)-1,2,3,4-tetrahydroisoquinoline-1-carboxamide]
16.8 nM | – | 99.8 nM | COC1CCN(c2cccc3c2CCN(C(=O)c2cn(-c4cccc(Cl)c4F)nn2)[C@@H]3C(=O)Nc2ccc(CO)cc2)CC1 [Example 122, (S)-2-(1-(3-Chloro-2-fluorophenyl)-1H-1,2,3-triazole-4-carbonyl)-N-(4-(hydroxymethyl)phenyl)-5-(4-methoxypiperidin-1-yl)-1,2,3,4-tetrahydroisoquinoline-1-carboxamide]
7.69 nM | – | 21.1 nM | O=C(O)c1ccc(NC(=O)C2c3cccc(OC4COC4)c3CCN2C(=O)c2cn(-c3cccc(Cl)c3F)nn2)cc1 (stereo not shown) [Example 123, 4-(2-(1-(3-Chloro-2-fluorophenyl)-1H-1,2,3-triazole-4-carbonyl)-5-(oxetan-3-yloxy)-1,2,3,4-tetrahydroisoquinoline-1-carboxamido)benzoic acid]
< 5 nM | – | 94 nM | O=C(Nc1ccc(-c2ncc[nH]2)cc1)C1c2cccc(-c3cncnc3)c2CCN1C(=O)c1cn(-c2cccc(Cl)c2F)nn1 (stereo not shown) [Example 126, N-(4-(1H-imidazol-2-yl)phenyl)-2-(1-(3-chloro-2-fluorophenyl)-1H-1,2,3-triazole-4-carbonyl)-5-(pyrimidin-5-yl)-1,2,3,4-tetrahy-droisoquinoline-1-carboxamide, TFA salt]
< 5 nM | – | 196 nM | O=C(Nc1ccc(-c2cc[nH]n2)cc1)C1c2cccc(-c3cncnc3)c2CCN1C(=O)c1cn(-c2cccc(Cl)c2F)nn1 (stereo not shown) [Example 127, N-(4-(1H-pyrazol-3-yl)phenyl)-2-(1-(3-chloro-2-fluorophenyl)-1H-1,2,3-triazole-4-carbonyl)-5-(pyrimidin-5-yl)-1,2,3,4-tetrahydroisoquinoline-1-carboxamide, TFA salt]
< 5 nM | – | 65.3 nM | COC(=O)c1ccc2cc(NC(=O)C3c4cccc(-c5cncnc5)c4CCN3C(=O)c3cn(-c4cccc(Cl)c4F)nn3)ccc2n1 (stereo not shown) [Example 128, methyl 6-(2-(1-(3-chloro-2-fluorophenyl)-1H-1,2,3-triazole-4-carbonyl)-5-(pyrimidin-5-yl)-1,2,3,4-tetrahydroisoquinoline-1-carboxamido) quinoline-2-carboxylate, TFA salt]
< 5 nM | – | 34 nM | O=C(O)c1ccc2cc(NC(=O)C3c4cccc(-c5cncnc5)c4CCN3C(=O)c3cn(-c4cccc(Cl)c4F)nn3)ccc2n1 (stereo not shown) [Example 129, 6-(2-(1-(3-chloro-2-fluorophenyl)-1H-1,2,3-triazole-4-carbonyl)-5-(pyrimidin-5-yl)-1,2,3,4-tetrahydroisoquinoline-1-carboxamido) quinoline-2-carboxylic acid, TFA salt]
28.3 nM | – | 126 nM | O=C(Nc1ccc2cnccc2c1)C1c2cccc(-c3cncnc3)c2CCN1C(=O)c1cn(-c2cccc(Cl)c2F)nn1 (stereo not shown) [Example 130, 2-(1-(3-chloro-2-fluorophenyl)-1H-1,2,3-triazol-4-carbonyl)-N-(isoquinolin-6-yl)-5-(pyrimidin-5-yl)-1,2,3,4-tetrahydroisoquinoline-1-carboxamide, TFA salt]
< 5 nM | – | 60.3 nM | O=C(Nc1ccc(-c2ncn[nH]2)cc1)C1c2cccc(-c3cncnc3)c2CCN1C(=O)c1cn(-c2cccc(Cl)c2F)nn1 (stereo not shown) [Example 131, N-(4-(1H-1,2,4-triazol-5-yl)phenyl)-2-(1-(3-chloro-2-fluorophenyl)-1H-1,2,3-triazole-4-carbonyl)-5-(pyrimidin-5-yl)-1,2,3,4-tetrahydroisoquinoline-1-carboxamide, TFA salt]
124 nM | – | 1620 nM | COC(=O)[C@H]1CC[C@@H](NC(=O)C2c3cccc(-c4cncnc4)c3CCN2C(=O)c2cn(-c3cccc(Cl)c3F)nn2)CC1 (stereo partly drawn) [Example 132, (1R,4R)-methyl 4-(2-(1-(3-chloro-2-fluorophenyl)-1H-1,2,3-triazole-4-carbonyl)-5-(pyrimidin-5-yl)-1,2,3,4-tetrahydroisoquinoline-1-carboxamido) cyclohexanecarboxylate]

Second part, the compound before the results:

Compound | Ki [1] | Ki [2, 3] | Ki ([2]; measured at 37° C. (*))
CCOC(=O)Cc1ccc(NC(=O)C2c3cccc(-c4ccc(C(=O)NC)nc4)c3CCN2C(=O)c2cn(-c3cccc(Cl)c3F)nn2)cc1 (stereo not shown) [Example 116, Ethyl 2-(4-(2-(1-(3-Chloro-2-fluorophenyl)-1H-1,2,3-triazole-4-carbonyl)-5-(6-(methylcarbamoyl)pyridin-3-yl)-1,2,3,4-tetrahydroisoquinoline-1-carboxamido)phenyl)acetate, TFA salt] | 13.6 nM | 128 nM | –
CNC(=O)c1ccc(-c2cccc3c2CCN(C(=O)c2cn(-c4cccc(Cl)c4F)nn2)C3C(=O)Nc2ccc(CC(=O)O)cc2)cn1 (stereo not shown) [Example 117, 2-(4-(2-(1-(3-Chloro-2-fluorophenyl)-1H-1,2,3-triazole-4-carbonyl)-5-(6-(methylcarbamoyl)pyridin-3-yl)-1,2,3,4-tetrahydroisoquinoline-1-carboxamido)phenyl)acetic acid, TFA salt] | < 5 nM | 16.3 nM | –
O=C(Nc1ccccc1)C1c2cccc(Br)c2CCN1C(=O)c1cn(-c2cccc(Cl)c2F)nn1 (stereo not shown) [Example 119, 5-Bromo-2-(1-(3-chloro-2-fluorophenyl)-1H-1,2,3-triazole-4-carbonyl)-N-phenyl-1,2,3,4-tetrahydroisoquinoline-1-carboxamide] | 4440 nM | – | 1100 nM
O=C(Nc1ccc(CO)cc1)C1c2cccc(Br)c2CCN1C(=O)c1cn(-c2cccc(Cl)c2F)nn1 (stereo not shown) [Example 120, 5-Bromo-2-(1-(3-chloro-2-fluorophenyl)-1H-1,2,3-triazole-4-carbonyl)-N-(4-(hydroxymethyl)phenyl)-1,2,3,4-tetrahydroisoquinoline-1-carboxamide] | 3940 nM | – | 517 nM
CC1(COc2cccc3c2CCN(C(=O)c2cn(-c4cccc(Cl)c4F)nn2)C3C(=O)Nc2ccc(C(=O)O)cc2)COC1 (stereo not shown) [Example 124, 4-(2-(1-(3-Chloro-2-fluorophenyl)-1H-1,2,3-triazole-4-carbonyl)-5-((3-methyloxetan-3-yl)methoxy)-1,2,3,4-tetrahydroisoquinoline-1-carboxamido)benzoic acid] | < 5 nM | – | 36.2 nM
O=C(Nc1ccc(-c2ncc[nH]2)cc1)[C@@H]1c2cccc(-c3cncnc3)c2CCN1C(=O)[C@H]1CC(c2cccc(Cl)c2F)=NO1 [Example 134, (S)-N-(4-(1H-Imidazol-2-yl)phenyl)-2-((R)-3-(3-chloro-2-fluorophenyl)-4,5-dihydroisoxazole-5-carbonyl)-5-(pyrimidin-5-yl)-1,2,3,4-tetrahydroisoquinoline-1-carboxamide, TFA salt] | < 5 nM | – | 24.4 nM
O=C(Nc1ccc(-c2ncc[nH]2)cc1)[C@H]1c2cccc(-c3cncnc3)c2CCN1C(=O)[C@H]1CC(c2cccc(Cl)c2F)=NO1 [Example 135, (R)-N-(4-(1H-imidazol-2-yl)phenyl)-2-((R)-3-(3-chloro-2-fluorophenyl)-4,5-dihydroisoxazole-5-carbonyl)-5-(pyrimidin-5-yl)-1,2,3,4-tetrahydroisoquinoline-1-carboxamide TFA salt] | < 5 nM | – | 399 nM
Cc1c(C(=O)N2CCc3c(-c4cncnc4)cccc3C2C(=O)Nc2ccc(-c3ncc[nH]3)cc2)ncn1-c1cccc(Cl)c1F (stereo not shown) [Example 136, N-(4-(1H-Imidazol-2-yl)phenyl)-2-(1-(3-chloro-2-fluorophenyl)-5-methyl-1H-imidazole-4-carbonyl)-5-(pyrimidin-5-yl)-1,2,3,4-tetrahydroisoquinoline-1-carboxamide, 2 TFA salt] | 6.97 nM | – | 157 nM
O=C(Nc1ccc(-c2ncc[nH]2)cc1)C1c2cccc(-c3cncnc3)c2CCN1C(=O)c1cn(-c2cccc(Cl)c2F)cn1 (stereo not shown) [Example 137, N-(4-(1H-Imidazol-2-yl)phenyl)-2-(1-(3-chloro-2-fluorophenyl)-1H-imidazole-4-carbonyl)-5-(pyrimidin-5-yl)-1,2,3,4-tetrahydroisoquinoline-1-carboxamide, 2 TFA] | < 5 nM | – | 53.4 nM
O=C(Nc1ccc(-c2ncc[nH]2)cc1)[C@@H]1c2cccc(-c3cncnc3)c2CCN1C(=O)c1cn(-c2cccc(Cl)c2F)nn1 [Example 138, (S)-N-(4-(1H-Imidazol-2-yl)phenyl)-2-(1-(3-chloro-2-fluorophenyl)-1H-1,2,3-triazole-4-carbonyl)-5-(pyrimidin-5-yl)-1,2,3,4-tetrahydroisoquinoline-1-carboxamide, TFA salt] | < 5 nM | – | 25.9 nM
O=C(Nc1ccc(-c2ncc[nH]2)cc1)[C@H]1c2cccc(-c3cncnc3)c2CCN1C(=O)c1cn(-c2cccc(Cl)c2F)nn1 [Example 139, (R)-N-(4-(1H-Imidazol-2-yl)phenyl)-2-(1-(3-chloro-2-fluorophenyl)-1H-1,2,3-triazole-4-carbonyl)-5-(pyrimidin-5-yl)-1,2,3,4-tetrahydroisoquinoline-1-carboxamide, TFA salt] | 133 nM | – | > 13000 nM
COC1CCN(c2cccc3c2CCN(C(=O)c2nnn(-c4cccc(Cl)c4F)c2C)C3C(=O)Nc2ccc(-c3ncc[nH]3)cc2)CC1 (stereo not shown) [Example 140, N-(4-(1H-Imidazol-2-yl)phenyl)-2-(1-(3-chloro-2-fluorophenyl)-5-methyl-1H-1,2,3-triazole-4-carbonyl)-5-(4-methoxypiperidin-1-yl)-1,2,3,4-tetrahydroisoquinoline-1-carboxamide, 2 TFA salt] | 39.7 nM | – | 2370 nM
